This note sets out measurements from ChEMBL document CHEMBL1201862, “PubChem BioAssay data set” (2004).

Test systems include HOP-62; IGROV-1; RPMI-8226; UACC-62; SF-268; M14; A549; OVCAR-3; PC-3; HCC 2998; MOLT-4; SK-MEL-28; MCF7; MDA-N; OVCAR-5; MDA-MB-231; A498; MDA-MB-435; K562; UACC-257.
Holding throughout (assay): NCI-60 cell line screen, 48 h

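The compound was tested at five concentrations on cells cultured in 96-well plates, with a 48-hour exposure period. At the GI50, growth is halved.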 Activity calls are given as the source filed them. Cut-off read from the data, not from the text of the source: active = GI50 up to about 1.1 µM and inactive = higher. Where only a bound is given, the exact number is not on record here.

Consider `Cc1nc2c(=O)n(C)c(=O)nc-2n(CCO)c1C`, for which the GI50 in the assay on HOP-62, in the assay with IGROV-1, with RPMI-8226, in the assay on UACC-62, with SF-268 and in the assay on M14 was > 100 µM (inactive) each time. In addition, the GI50 with A549, in the assay on OVCAR-3, in the assay on PC-3, with HCC 2998, with MOLT-4 and in the assay with SK-MEL-28 was > 100 µM (inactive) each time. The GI50 in the assay with MCF7, in the assay with MDA-N, in the assay on OVCAR-5, in the assay with MDA-MB-231, with A498 and with MDA-MB-435 was > 100 µM (inactive) in each case. Also, the GI50 in the assay with K562 and in the assay on UACC-257 was > 100 µM (inactive) each time.
Consider `O=S(=O)(O)C(Cc1nc2ccccc2[nH]1)S(=O)(=O)OCCC1S(=O)(=O)OCCOS1(=O)=O` (stereo not given), for which the GI50 in the assay on HOP-62, with IGROV-1, in the assay with RPMI-8226, in the assay with UACC-62, with SF-268 and with M14 was > 100 µM (inactive) in each case. Also, the GI50 in the assay with A549, in the assay with OVCAR-3, with PC-3, in the assay on HCC 2998, in the assay on MOLT-4 and in the assay with SK-MEL-28 was > 100 µM (inactive) throughout. The GI50 in the assay on MCF7, in the assay with MDA-N, in the assay on OVCAR-5, with MDA-MB-231, in the assay on A498 and with MDA-MB-435 was > 100 µM (inactive) in each case. Also, the GI50 with K562 and in the assay with UACC-257 was > 100 µM (inactive) throughout.
With `COc1cccc2c1C(=O)c1c(O)c3c(c(O)c1C2=O)C[C@@](O)(C(=O)CO)CC3OC1CC(O)C(O)C(C)O1` (stereo not given in full), the GI50 in the assay with HOP-62 was 0.0146 µM (active); in the assay on IGROV-1 it was 0.333 µM (active); in the assay on RPMI-8226, 0.199 µM (active); in the assay on UACC-62, 0.125 µM (active); in the assay with SF-268, 0.21 µM (active); in the assay with M14, 0.361 µM (active). The GI50 is 0.104 µM (active) in the assay with A549; 0.583 µM (active) in the assay with OVCAR-3; 0.274 µM (active) with PC-3; 0.562 µM (active) in the assay with HCC 2998; 0.0202 µM (active) with MOLT-4; 0.789 µM (active) in the assay with SK-MEL-28. In addition, the GI50 in the assay with MCF7 is < 0.01 µM (active); in the assay with MDA-N, 0.562 µM (active); in the assay on OVCAR-5, 0.424 µM (active); with MDA-MB-231 it was 0.565 µM (active); in the assay with A498, 0.171 µM (active); in the assay on MDA-MB-435, 0.834 µM (active). Moreover, the GI50 in the assay with K562 was 0.239 µM (active); with UACC-257 it was 0.453 µM (active).
For `C=C1CC(Cn2ccc(=O)[nH]c2=O)(c2ccc(Cl)cc2)OC1=O` (stereo not given), the GI50 in the assay on HOP-62 is 18.2 µM (inactive); with IGROV-1, 2.86 µM (inactive); with RPMI-8226 it was 1.28 µM (inactive); with UACC-62 it was 5.15 µM (inactive); in the assay with SF-268, 19.8 µM (inactive); in the assay on M14, 3.56 µM (inactive). The GI50 in the assay on A549 is 16.9 µM (inactive); with OVCAR-3 it was 7.1 µM (inactive); in the assay on PC-3, 6.64 µM (inactive); with HCC 2998, 13.9 µM (inactive); in the assay with MOLT-4 it was 1.78 µM (inactive); in the assay on SK-MEL-28 it was 4.3 µM (inactive). Also, the GI50 was 1.87 µM (inactive) in the assay on MCF7; 4.58 µM (inactive) in the assay on MDA-N; 15.7 µM (inactive) in the assay with OVCAR-5; 14.6 µM (inactive) in the assay with MDA-MB-231; 16.4 µM (inactive) in the assay on A498; 8.15 µM (inactive) with MDA-MB-435. In addition, the GI50 with K562 was 0.631 µM (active); in the assay with UACC-257 it was 3.58 µM (inactive).
